Data on nine compounds can be found in ChEMBL document CHEMBL1201862, “PubChem BioAssay data set” (2004).

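Each compound was tested at five concentrations against cells in 96-well plates for 48 hours. GI50 marks 50% less growth.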 The source made the active and inactive calls. Rule as the data show it: active = GI50 up to about 1.1 µM and inactive = higher.

Test systems include OVCAR-4; A549; NCI/ADR-RES; LOX IMVI; HOP-62; SK-MEL-28; RPMI-8226; SK-MEL-5; UO-31; DU-145; OVCAR-3; HCT-116; MDA-MB-435; SW-620; RXF 393; HCC 2998; SF-539; Malme-3M; HL-60; Hs-578T.
What all share (experiment): NCI anticancer screen, dose series, 48 h

As to `CC(C)c1cc(=O)[nH]c2cc(N)ccc12`, the GI50 with OVCAR-4, with A549, in the assay on NCI/ADR-RES, in the assay with LOX IMVI, with HOP-62 and in the assay on SK-MEL-28 was > 100 µM (inactive) in each case. For the same compound, the GI50 with RPMI-8226, in the assay on SK-MEL-5, in the assay with UO-31, with DU-145, in the assay with OVCAR-3 and with HCT-116 was > 100 µM (inactive) in each case. Besides, the GI50 in the assay with MDA-MB-435, with SW-620, with RXF 393, with HCC 2998 and in the assay with SF-539 was > 100 µM (inactive) in each case.

`C=CC1CCC[N+]1(CC(=O)OCC)Cc1ccccc1` (stereo not drawn): the GI50 with OVCAR-4, in the assay with A549, with NCI/ADR-RES, in the assay with HOP-62, with SK-MEL-28 and in the assay on RPMI-8226 was > 100 µM (inactive) each time. Moreover, the GI50 in the assay on SK-MEL-5, in the assay on UO-31, in the assay with DU-145, in the assay with OVCAR-3, in the assay on HCT-116 and in the assay with Malme-3M was > 100 µM (inactive) throughout. Also, the GI50 in the assay with MDA-MB-435, in the assay with SW-620, in the assay with HL-60 and in the assay with HCC 2998 was > 100 µM (inactive) each time.

Turning to `COc1cc(Cc2nccc3cc(OC)c(OC)cc23)c(C(C)=O)cc1OC`, the GI50 with OVCAR-4 was 6.71 µM (inactive); with A549, > 300 µM (inactive); with NCI/ADR-RES it was > 300 µM (inactive); in the assay on LOX IMVI, 23.6 µM (inactive); in the assay on HOP-62 it was 39.4 µM (inactive); in the assay with SK-MEL-5 it was 57.4 µM (inactive). Besides, the GI50 in the assay with UO-31 is > 139 µM (inactive); in the assay on DU-145, > 100 µM (inactive); in the assay on OVCAR-3, 34.5 µM (inactive); in the assay on Malme-3M it was 19.7 µM (inactive); with MDA-MB-435 it was 61 µM (inactive); in the assay with HL-60, 59.7 µM (inactive). Further, the GI50 was 189 µM (inactive) with RXF 393, 80.7 µM (inactive) in the assay with HCC 2998 and > 94.8 µM (inactive) with SF-539.

For `CN(C)c1ccc(-c2c(C#N)c(S)n(NS(=O)(=O)c3ccccc3)c(=O)c2C#N)cc1`, the GI50 in the assay with OVCAR-4 was 25.6 µM (inactive); in the assay with A549, 37.9 µM (inactive); in the assay with NCI/ADR-RES, 19.3 µM (inactive); in the assay on LOX IMVI, 22.1 µM (inactive); with SK-MEL-28, 36.1 µM (inactive); in the assay with RPMI-8226 it was 13.9 µM (inactive). For the same compound, the GI50 with SK-MEL-5 was 19.8 µM (inactive); in the assay with UO-31, 25.5 µM (inactive); with DU-145, 63.5 µM (inactive); in the assay with OVCAR-3 it was 36.6 µM (inactive); in the assay on HCT-116, 27.2 µM (inactive); with Malme-3M, 26.5 µM (inactive). In addition, the GI50 in the assay with MDA-MB-435 is 21.5 µM (inactive); in the assay with SW-620 it was 38.9 µM (inactive); in the assay with HL-60, 15.7 µM (inactive); in the assay with RXF 393, 20.4 µM (inactive); in the assay on HCC 2998 it was 70.8 µM (inactive); in the assay on SF-539 it was 18.8 µM (inactive).

For the compound `CCCCCCCCCCCCCc1nnn[nH]1`, the GI50 with OVCAR-4 is 18.3 µM (inactive); in the assay on A549, 20 µM (inactive); in the assay with LOX IMVI it was 18.4 µM (inactive); in the assay with HOP-62 it was 18.2 µM (inactive); in the assay with SK-MEL-28 it was 17.8 µM (inactive); in the assay with RPMI-8226, 22.4 µM (inactive). For the same compound, the GI50 is 17.7 µM (inactive) in the assay on SK-MEL-5; 16 µM (inactive) in the assay on UO-31; 18.3 µM (inactive) in the assay on OVCAR-3; 17.9 µM (inactive) in the assay with HCT-116; 18.1 µM (inactive) in the assay on Malme-3M; 20 µM (inactive) in the assay with SW-620. Besides, the GI50 with HL-60 was 18.1 µM (inactive); with RXF 393, 27.5 µM (inactive); in the assay on HCC 2998, 18.6 µM (inactive); with SF-539, 18.2 µM (inactive).

Take `CC(=O)O[C@]1(C)CCC2C(C)C(=O)OC2C2C(C)[C@@H](O)CC21` (stereo partly drawn): the GI50 with OVCAR-4 is 26.2 µM (inactive); with A549, 52.7 µM (inactive); with LOX IMVI it was 17.9 µM (inactive); in the assay on HOP-62 it was 19.3 µM (inactive); with SK-MEL-28 it was 34 µM (inactive); in the assay on RPMI-8226, 20.5 µM (inactive). The GI50 with SK-MEL-5 is 32.1 µM (inactive); in the assay on UO-31 it was 48.9 µM (inactive); in the assay with OVCAR-3, 12.9 µM (inactive); in the assay on HCT-116, 27.2 µM (inactive); in the assay on Malme-3M, > 100 µM (inactive); in the assay with SW-620, 15.8 µM (inactive). The GI50 is 14.2 µM (inactive) with HL-60, 32.3 µM (inactive) in the assay with RXF 393, 24.6 µM (inactive) in the assay with HCC 2998 and 39.5 µM (inactive) in the assay on SF-539.

`O=c1c2c(nc3n1CCC3)sc1c(O)c(Br)ccc12`: the GI50 with OVCAR-4 is 17.7 µM (inactive); with A549 it was 15.4 µM (inactive); in the assay with LOX IMVI it was 13 µM (inactive); with HOP-62 it was 19.1 µM (inactive); with SK-MEL-28, 16.4 µM (inactive); in the assay on RPMI-8226 it was 21.3 µM (inactive). The GI50 in the assay on SK-MEL-5 was 14.5 µM (inactive); with UO-31, 18.8 µM (inactive); with OVCAR-3 it was 19.1 µM (inactive); in the assay on HCT-116, 15.2 µM (inactive); in the assay on Malme-3M, 17.5 µM (inactive); in the assay on SW-620, 12.5 µM (inactive). The GI50 in the assay on HL-60 is 14.7 µM (inactive); in the assay on RXF 393, 29.9 µM (inactive); in the assay on HCC 2998, 17.1 µM (inactive); in the assay on SF-539, 15.5 µM (inactive).

Turning to `C/C(=N/NC(=S)Nc1ccc(Cl)cc1)c1cccc(/C(C)=N\NC(=S)Nc2ccc(Cl)cc2)n1`, the GI50 is 13.4 µM (inactive) in the assay on OVCAR-4; 5.55 µM (inactive) in the assay with A549; 2.59 µM (inactive) in the assay with NCI/ADR-RES; 4.58 µM (inactive) in the assay on LOX IMVI; 2.76 µM (inactive) in the assay on HOP-62; 23.2 µM (inactive) in the assay on SK-MEL-28. Further, the GI50 with RPMI-8226 was 4.74 µM (inactive); in the assay with SK-MEL-5 it was 1.86 µM (inactive); in the assay with UO-31, 5.92 µM (inactive); with DU-145, 26.1 µM (inactive); in the assay on OVCAR-3, 1.49 µM (inactive); in the assay on HCT-116, 2.9 µM (inactive). In addition, the GI50 was 2.59 µM (inactive) with Malme-3M; 12.3 µM (inactive) with MDA-MB-435; 4.12 µM (inactive) with SW-620; 4.01 µM (inactive) in the assay with RXF 393; 12.2 µM (inactive) in the assay on HCC 2998; 1.48 µM (inactive) in the assay with SF-539.

Turning to `COC(=O)NC1(NC(=O)OC)NC(=O)c2ccccc2N1`, the GI50 in the assay on Hs-578T is > 100 µM (inactive); with OVCAR-4, > 100 µM (inactive); with A549 it was < 0.01 µM (active); in the assay with NCI/ADR-RES, > 100 µM (inactive); with HOP-62, > 100 µM (inactive); in the assay with SK-MEL-28, > 100 µM (inactive). Also, the GI50 in the assay on SK-MEL-5, in the assay with UO-31, with DU-145, with OVCAR-3, in the assay on HCT-116 and in the assay with Malme-3M was > 100 µM (inactive) in each case. Besides, the GI50 with SW-620, with HL-60, with HCC 2998 and with SF-539 was > 100 µM (inactive) each time.
